Laboratory results as given in patent publication US10208089B2, “Modulation of complement activity” (priority 2014, dated 2019).
Entries after “also recorded” stand apart in the source; their conditions may differ. Where two headings read alike, the source gives them in different places. Starred links: 1 amine or outer side, 2 acyl side, 3 side chain; linkers in the order of their positions; H or OH if unused. Positions of bridges follow the written chain, without caps; N, C: chain ends. Non-standard residues stand in square brackets, D forms with d. Residues, ends and D or L forms follow the SMILES beside them. Trp(7-aza) = N[C@@H](Cc1c[nH]c2ncccc12)C(=O)O; mXylylene = c1cc(C[*:1])cc(C[*:2])c1; pXylylene = c1cc(C[*:2])ccc1C[*:1]; Phg = N[C@H](C(=O)O)c1ccccc1; Tle = CC(C)(C)[C@H](N)C(=O)O; NMeS = CN[C@@H](CO)C(=O)O; Nva = CCC[C@H](N)C(=O)O

Assays:
[1] = tested on: membrane attack complex (MAC); assay: Membrane attack complex (MAC) EIA on supernatant from human RBC hemolysis assay; assay type: biochemical; details: hemolysis assay supernatant diluted 1:5; read-out: IC50, inhibition of formation of the MAC
Procedure: Supernatant from the hemolysis assay was diluted 1:5 and assayed for MAC levels.
C5 inhibitory activity was assessed by enzyme immunoassay (EIA). Inhibition of the production of C5a and the membrane attack complex (MAC) were measured by MicroVue EIA kits (Quidel Corporation, San Diego, Calif.).

[2] = tested on: C5a; assay: C5a EIA on supernatant from human RBC hemolysis assay; assay type: biochemical; details: hemolysis assay supernatant diluted 1:50; read-out: IC50, inhibition of formation of C5a
Procedure: Levels of C5a correlate with complement activity and are therefore an indicator of the ability of the compounds tested to inhibit complement activity. Supernatant from the hemolysis assay was diluted 1:50 and assayed for C5a levels. […] As used herein, the term “IC50” refers to the half maximal inhibitory concentration, a value used to indicate the amount of the inhibitor needed to reduce a given reaction or process by half.
Inhibition of the production of C5a and the membrane attack complex (MAC) were measured by MicroVue EIA kits (Quidel Corporation, San Diego, Calif.).

[3] = molecular target: T1, C5 (Homo sapiens, UniProt P01031); assay: Human hemolysis assay (RBC lysis assay using complete human sera); assay type: cell-based; set-up: with complete human sera (Complement Technology, Tyler Tex.) and polypeptides; tissue Complement Technology, Tyler Tex; host or cells: complete human serum; details: inhibition of lysis of antibody-sensitized sheep erythrocytes, complete human sera
T1 sequence (P01031 19-1676): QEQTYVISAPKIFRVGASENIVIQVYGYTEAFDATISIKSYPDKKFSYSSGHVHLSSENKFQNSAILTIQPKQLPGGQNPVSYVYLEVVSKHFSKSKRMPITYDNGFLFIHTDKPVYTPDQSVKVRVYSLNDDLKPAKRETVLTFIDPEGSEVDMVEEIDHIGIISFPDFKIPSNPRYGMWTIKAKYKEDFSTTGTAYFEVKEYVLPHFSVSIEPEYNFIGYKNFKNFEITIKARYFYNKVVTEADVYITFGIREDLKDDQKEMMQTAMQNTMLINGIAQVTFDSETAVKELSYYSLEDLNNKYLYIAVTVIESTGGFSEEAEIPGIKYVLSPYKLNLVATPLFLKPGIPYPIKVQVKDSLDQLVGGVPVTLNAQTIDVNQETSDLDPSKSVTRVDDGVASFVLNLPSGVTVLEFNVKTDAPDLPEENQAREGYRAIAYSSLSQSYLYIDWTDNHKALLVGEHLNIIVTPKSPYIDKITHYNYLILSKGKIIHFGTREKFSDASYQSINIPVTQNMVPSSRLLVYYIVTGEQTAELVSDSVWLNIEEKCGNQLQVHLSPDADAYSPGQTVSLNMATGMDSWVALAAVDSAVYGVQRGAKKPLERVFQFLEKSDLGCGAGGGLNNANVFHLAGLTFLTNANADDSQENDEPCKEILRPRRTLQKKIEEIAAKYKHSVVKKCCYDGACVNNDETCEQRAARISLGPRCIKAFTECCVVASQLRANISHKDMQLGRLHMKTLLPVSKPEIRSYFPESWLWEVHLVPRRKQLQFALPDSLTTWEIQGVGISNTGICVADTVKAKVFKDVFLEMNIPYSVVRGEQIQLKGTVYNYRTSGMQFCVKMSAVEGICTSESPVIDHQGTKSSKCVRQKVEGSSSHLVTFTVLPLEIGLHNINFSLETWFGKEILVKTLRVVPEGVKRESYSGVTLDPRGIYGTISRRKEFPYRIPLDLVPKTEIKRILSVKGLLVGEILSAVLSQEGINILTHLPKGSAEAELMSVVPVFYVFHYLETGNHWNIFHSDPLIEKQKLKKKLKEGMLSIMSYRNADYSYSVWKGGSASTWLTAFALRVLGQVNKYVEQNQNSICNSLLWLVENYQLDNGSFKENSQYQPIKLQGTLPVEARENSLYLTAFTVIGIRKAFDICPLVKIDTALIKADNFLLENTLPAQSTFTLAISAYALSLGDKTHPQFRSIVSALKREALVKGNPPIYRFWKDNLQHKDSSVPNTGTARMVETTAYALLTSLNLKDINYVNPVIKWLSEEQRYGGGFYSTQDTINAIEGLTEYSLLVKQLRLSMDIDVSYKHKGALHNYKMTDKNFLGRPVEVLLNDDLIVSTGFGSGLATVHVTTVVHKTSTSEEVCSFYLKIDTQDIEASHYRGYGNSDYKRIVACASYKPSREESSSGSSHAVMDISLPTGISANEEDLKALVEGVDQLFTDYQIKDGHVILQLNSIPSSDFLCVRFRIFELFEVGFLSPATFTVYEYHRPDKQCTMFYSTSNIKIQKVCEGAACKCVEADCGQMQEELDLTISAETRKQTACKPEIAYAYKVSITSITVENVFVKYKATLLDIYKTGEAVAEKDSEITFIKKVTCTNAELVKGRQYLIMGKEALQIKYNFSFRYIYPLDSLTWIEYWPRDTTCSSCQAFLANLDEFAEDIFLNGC

[4] = molecular target: T1, C5; assay: Competitive fluorescence polarization assay with probe R3076; assay type: binding; set-up: purchased Complement Technology, Tyler, Tex; details: for competition with labeled probe / affinity for C5 (in words): probe R3076 25 nM
Procedure: FP allows binding events to be measured in a homogenous solution.
Polarization was measured over time, until binding reached equilibrium. KD was determined using Graphpad Prism (using “Saturating Binding Curves, One Site—Specific Binding With Hill Slope” as the curve fit to determine KD).
10 μl of this working stock was then added to each well in the assay plate. The assay plate was incubated at room temperature, protected from light, for 20 minutes to allow binding to reach equilibrium.
Test articles listed in Table 7 were subsequently diluted in DMSO then assay buffer, comprising 10 2-fold dilutions and were then added to the assay plate in triplicate, rapidly. The assay plate was then incubated in the Paradigm (Molecular Devices, Sunnyvale, Calif.) plate reader for 60 minutes at 25° C.
After incubation for 60 minutes, the plate was read using the Paradigm FP protocol (Molecular Devices, Sunnyvale, Calif.) and raw polarization values were imported into Graphpad Prism.

[5] = Compound stability in human plasma; assay type: in vitro ADME
Procedure: Compounds were assayed for stability in human plasma under the following conditions. Human plasma was obtained from Bioreclamation (Westbury, N.Y.) and collected in sodium heparin. Plasma was adjusted to pH 7.4. DMSO stocks at 10 mM concentration were prepared for the test compounds. Aliquots of the DMSO solutions were dosed into 1 mL of plasma, which had been pre-warmed to 37° C., at a final test compound concentration of 10 μM. The vials were kept in a benchtop THERMOMIXER® (Eppendorf, Hauppauge, N.Y.) for the duration of the experiment. Aliquots (100 μL) were taken at each timepoint and added to a 96-well plate that had been pre-filled with 300 μL of an acetonitrile solution containing mixture of the internal standards (metoprolol, propranolol and warfarin each at 500 ng/mL). […] Aliquots of the supernatant were removed and analyzed by LC-HRAMS.

[6] = molecular target: T1, C5; assay: Alternative human hemolysis assay using C5 depleted sera and purified human C5; assay type: cell-based; set-up: purchased Complement Technology, Tyler, Tex; details: antibody-sensitized sheep erythrocytes, 1.5% human C5 depleted sera and 0.5 nM purified human C5
[7] = molecular target: T2, rat C5 (Rattus norvegicus, UniProt P08650); assay: Ex vivo hemolysis assays in the rat study
T2 construct: from tissue; host or cells: plasma of dosed male rats
T2 sequence (P08650 19-1681): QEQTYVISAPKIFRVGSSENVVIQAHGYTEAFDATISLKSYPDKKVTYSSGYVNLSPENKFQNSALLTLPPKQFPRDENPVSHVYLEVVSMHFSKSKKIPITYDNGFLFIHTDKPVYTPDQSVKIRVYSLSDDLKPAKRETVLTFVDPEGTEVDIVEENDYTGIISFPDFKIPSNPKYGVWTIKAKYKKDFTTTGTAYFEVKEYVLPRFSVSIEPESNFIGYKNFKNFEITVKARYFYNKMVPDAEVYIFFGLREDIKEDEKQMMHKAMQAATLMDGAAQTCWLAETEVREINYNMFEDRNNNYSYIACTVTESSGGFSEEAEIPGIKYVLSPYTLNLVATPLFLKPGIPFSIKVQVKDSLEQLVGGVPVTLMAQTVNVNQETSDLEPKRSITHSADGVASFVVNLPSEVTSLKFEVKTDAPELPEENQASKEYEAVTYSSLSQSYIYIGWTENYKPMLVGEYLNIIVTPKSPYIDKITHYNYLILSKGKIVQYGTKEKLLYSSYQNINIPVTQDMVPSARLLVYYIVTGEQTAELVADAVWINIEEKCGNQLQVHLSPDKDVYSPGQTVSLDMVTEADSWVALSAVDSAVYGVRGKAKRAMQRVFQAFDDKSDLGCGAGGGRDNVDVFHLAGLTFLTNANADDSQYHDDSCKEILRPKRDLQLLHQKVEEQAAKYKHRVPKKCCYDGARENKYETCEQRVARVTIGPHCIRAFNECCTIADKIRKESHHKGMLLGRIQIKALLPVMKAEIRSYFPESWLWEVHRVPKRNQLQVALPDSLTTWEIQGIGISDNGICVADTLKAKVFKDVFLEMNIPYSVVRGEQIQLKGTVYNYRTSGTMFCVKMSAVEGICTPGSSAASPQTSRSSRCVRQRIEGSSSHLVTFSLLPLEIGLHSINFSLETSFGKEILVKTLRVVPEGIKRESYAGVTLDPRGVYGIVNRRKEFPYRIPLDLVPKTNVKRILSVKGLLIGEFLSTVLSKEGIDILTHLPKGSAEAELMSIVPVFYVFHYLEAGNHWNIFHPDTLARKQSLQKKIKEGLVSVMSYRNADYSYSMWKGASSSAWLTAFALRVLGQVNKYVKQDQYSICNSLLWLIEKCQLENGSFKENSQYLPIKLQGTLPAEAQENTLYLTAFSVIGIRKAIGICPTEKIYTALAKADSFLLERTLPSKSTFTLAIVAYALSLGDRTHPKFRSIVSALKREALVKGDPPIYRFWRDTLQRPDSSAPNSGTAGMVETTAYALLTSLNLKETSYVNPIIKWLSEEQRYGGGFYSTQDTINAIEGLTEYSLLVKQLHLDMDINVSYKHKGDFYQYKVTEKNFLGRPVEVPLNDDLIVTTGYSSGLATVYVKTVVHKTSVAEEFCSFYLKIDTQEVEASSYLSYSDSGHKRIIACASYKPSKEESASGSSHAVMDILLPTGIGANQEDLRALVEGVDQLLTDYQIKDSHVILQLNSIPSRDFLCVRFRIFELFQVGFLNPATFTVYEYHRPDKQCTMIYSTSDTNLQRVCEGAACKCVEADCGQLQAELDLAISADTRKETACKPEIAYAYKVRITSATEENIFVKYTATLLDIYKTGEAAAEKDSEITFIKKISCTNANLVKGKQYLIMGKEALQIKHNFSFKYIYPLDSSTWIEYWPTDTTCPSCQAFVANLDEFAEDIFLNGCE

[8] = average of Exp 1 and Exp 2, read-out: Avg, nM IC50
[9] = average of Exp 1 and Exp 2, read-out: Avg, nM Ki
[10] = competition with probe R3076 25 nM, C5 50 nM, 60 min at 25° C., experiment 1, read-out: IC50 nM, Exp 1
[11] = competition with probe R3076 25 nM, C5 50 nM, 60 min at 25° C., experiment 1, read-out: Ki nM, Exp 1
[12] = competition with probe R3076 25 nM, C5 50 nM, 60 min at 25° C., experiment 2, read-out: IC50 nM, Exp 2
[13] = competition with probe R3076 25 nM, C5 50 nM, 60 min at 25° C., experiment 2, read-out: Ki nM, Exp 2

Compound | IC50 [3] | IC50 [4, 8] | Ki [4, 9] | IC50 [4, 10] | Ki [4, 11] | IC50 [4, 12] | Ki [4, 13] | competition with labeled probe / affinity for C5 (in words) ([4]; C5 50 nM) | IC50 [6] | also measured
CCC[C@H](NC(=O)[C@@H]1CCCN1C(=O)[C@H](CCC)NC(=O)[C@@H]1CSCc2cccc(c2)CSC[C@H](NC(=O)[C@H](CCC)NC(C)=O)C(=O)N[C@@H](c2ccccc2)C(=O)N[C@@H]([C@@H](C)O)C(=O)N[C@@H](Cc2c[nH]c3ncccc23)C(=O)N[C@@H](CCC(=O)O)C(=O)N[C@@H](Cc2ccc(O)cc2)C(=O)N(C)[C@@H](CO)C(=O)N[C@@H](Cc2c[nH]cn2)C(=O)N1)C(N)=O [Compound R3008, [mXylyl(2,10)]Ac-Nvl-C-Phg-T-azaTrp-E-Y-(N-Me)S-H-C-Nvl-P-Nvl-NH2] (Ac-[Nva]C[Phg]T[Trp(7-aza)]EY[NMeS]HC[Nva]P[Nva]-NH2; linker 2-10 via mXylylene) | 0.097 µM | – | – | – | – | – | – | – | – | IC50 [1]: 0.033 µM; IC50 [2]: 0.0545 µM
CCC[C@H](NC(=O)[C@H](Cc1ccc(O)cc1)NC(=O)[C@H](CC(N)=O)NC(=O)[C@H](CCC)NC(=O)[C@H](CCC(=O)O)NC(=O)[C@@H](NC(=O)[C@H](Cc1c[nH]c2ncccc12)NC(=O)[C@@H](NC(=O)[C@H](CS)NC(=O)[C@H](Cc1ccc(O)cc1)NC(=O)[C@@H]1CCCN1C(=O)[C@H](Cc1ccc(O)cc1)NC(C)=O)c1ccccc1)C(C)(C)C)C(=O)N[C@@H](CCC(=O)O)C(N)=O [Compound R3023, Ac-Y-P-Y-C-Phg-azaTrp-Tbg-E-Nvl-N-Y-Nvl-E-NH2] (Ac-YPYC[Phg][Trp(7-aza)][Tle]E[Nva]NY[Nva]E-NH2) | > 100 µM | > 1000 nM | > 1000 nM | > 1000 nM | > 1000 nM | > 1000 nM | > 1000 nM | no activity at the highest concentration tested; also recorded: not detected at the highest concentration tested; also recorded: no affinity | – | –
CSCC[C@H](N)C(=O)N[C@H]1CSCc2cccc(c2)CSC[C@@H](C(=O)N[C@@H](CC(=O)O)C(=O)N[C@H](C(=O)N[C@@H](Cc2ccc(O)cc2)C(=O)N[C@@H](Cc2c[nH]c3ccccc23)C(=O)N[C@@H](CCC(=O)O)C(N)=O)C(C)C)NC(=O)[C@H](Cc2ccccc2)NC(=O)[C@H](CCCNC(=N)N)NC(=O)[C@H](CCC(=O)O)NC(=O)[C@H](C(C)C)NC1=O [Compound R3043, [mXylyl(2,7)]M-C-V-E-R-F-C-D-V-Y-W-E-NE2] (H-MCVERFCDVYWE-NH2; linker 2-7 via mXylylene) | 0.934 µM | 4230 nM | 874 nM | 4330 nM | 866 nM | 4120 nM | 882 nM | weak affinity | – | –
CCC[C@H](NC(=O)[C@@H]1CSCc2ccc(cc2)CSC[C@H](NC(=O)[C@H](CCC)NC(C)=O)C(=O)N[C@@H](c2ccccc2)C(=O)N[C@@H]([C@@H](C)O)C(=O)N[C@@H](Cc2c[nH]c3ncccc23)C(=O)N[C@@H](CCC(=O)O)C(=O)N[C@@H](Cc2ccc(O)cc2)C(=O)N(C)[C@@H](CO)C(=O)N[C@@H](Cc2c[nH]cn2)C(=O)N1)C(N)=O [Compound R3050, [pXylyl(2,10)]Ac-Nvl-C-Phg-T-azaTrp-E-Y-(N-Me)S-H-C-Nvl-NH2] (Ac-[Nva]C[Phg]T[Trp(7-aza)]EY[NMeS]HC[Nva]-NH2; linker 2-10 via pXylylene) | 0.0429 µM | 280 nM | 64.3 nM | 267 nM | 71.1 nM | 293 nM | 57.6 nM | relatively strong affinity | – | stability in human plasma (in words) ([5]; 37° C., up to 24 hrs): highly stable; half-life at 10 μM ([5]; pH 7.4, 37° C., 10 μM): > 24 h; Percent remaining at time (hrs): 0 hrs ([5]; pH 7.4, 37° C., 10 μM, 0 hrs): 100%; remaining at 2 h, 10 μM ([5]; plasma (collected in sodium heparin), pH 7.4, 37° C., 10 μM, 2 hrs, read-out: Percent remaining at time (hrs): 2 hrs): 109%; remaining at 4 h, 10 μM ([5]; plasma (collected in sodium heparin), pH 7.4, 37° C., 10 μM, 4 hrs, read-out: Percent remaining at time (hrs): 4 hrs): 100%; remaining at 12 h, 10 μM ([5]; plasma (collected in sodium heparin), pH 7.4, 37° C., 10 μM, 12 hrs, read-out: Percent remaining at time (hrs): 12 hrs): 88%; remaining at 24 h, 10 μM ([5]; plasma (collected in sodium heparin), pH 7.4, 37° C., 10 μM, 24 hrs, read-out: Percent remaining at time (hrs): 24 hrs): 98.1%
CC(=O)N[C@H]1CCCCNC(=O)C[C@@H](C(=O)N(C)[C@@H](CC(=O)O)C(=O)N[C@H](C(=O)N[C@@H](Cc2ccc(O)cc2)C(=O)N[C@@H](Cc2c[nH]c3ncccc23)C(=O)N[C@@H](CCC(=O)O)C(=O)N[C@@H](Cc2ccc(O)cc2)C(=O)N2CCC[C@H]2C(=O)N[C@H](C(=O)N[C@@H](CCCCN)C(N)=O)C2CCCCC2)C(C)(C)C)NC(=O)[C@H](Cc2ccccc2)NC(=O)[C@H](CCCNC(=N)N)NC(=O)[C@H](CCC(=O)O)NC(=O)[C@H](C(C)C)NC1=O [Compound R3192, [cyclo(1,6)]Ac-K-V-E-R-F-D-(N-Me)D-Tbg-Y-azaTrp-E-Y-P-Chg-K-NH2] | – | – | – | – | – | – | – | – | 0.0015 µM | –
CCCCCCCCCCCCCCCC(=O)NCCCC[C@H](NC(=O)[C@@H](NC(=O)[C@@H]1CCCN1C(=O)[C@H](Cc1ccc(O)cc1)NC(=O)[C@H](CCC(=O)O)NC(=O)[C@H](Cc1c[nH]c2ncccc12)NC(=O)[C@H](Cc1ccc(O)cc1)NC(=O)[C@@H](NC(=O)[C@H](CC(=O)O)N(C)C(=O)[C@@H]1CC(=O)NCCCC[C@H](NC(C)=O)C(=O)N[C@@H](C(C)C)C(=O)N[C@@H](CCC(=O)O)C(=O)N[C@@H](CCCNC(=N)N)C(=O)N[C@@H](Cc2ccccc2)C(=O)N1)C(C)(C)C)C1CCCCC1)C(N)=O [Compound R3194, [cyclo(1,6)]Ac-K-V-E-R-F-D-(N-Me)D-Tbg-Y-azaTrp-E-Y-P-Chg-(Lys-C16)-NH2] | – | – | – | – | – | – | – | – | 0.0155 µM | –
CCCCCCCCCCCCCCCC(=O)NCCCC[C@H](NC(=O)[C@@H](NC(=O)[C@@H]1CCCN1C(=O)[C@H](Cc1ccc(O)cc1)NC(=O)[C@H](CCC(=O)O)NC(=O)[C@H](Cc1c[nH]c2ncccc12)NC(=O)[C@H](Cc1ccc(O)cc1)NC(=O)[C@@H](NC(=O)[C@H](CC(=O)O)N(C)C(=O)[C@@H]1CSSCCC(=O)N[C@@H](C(C)C)C(=O)N[C@@H](CCC(=O)O)C(=O)N[C@@H](CCCNC(=N)N)C(=O)N[C@@H](Cc2ccccc2)C(=O)N1)C(C)(C)C)C1CCCCC1)C(=O)O [Compound R3198, [cyclo(1,6)](desamino)C-V-E-R-F-C-(N-Me)D-Tbg-Y-azaTrp-E-Y-P-Chg-(Lys-C16)] | – | – | – | – | – | – | – | – | 0.142 µM | –
CCC[C@H](NC(=O)[C@@H](NC(=O)[C@@H]1CCCN1C(=O)[C@H](Cc1ccc(O)cc1)NC(=O)[C@H](CCC(=O)O)NC(=O)[C@H](Cc1c[nH]c2ncccc12)NC(=O)[C@H](Cc1ccc(O)cc1)NC(=O)[C@@H](NC(=O)[C@H](CC(=O)O)NC(=O)[C@@H]1CSCc2cccc(c2)CSC[C@H](NC(C)=O)C(=O)N[C@@H](C(C)C)C(=O)N[C@@H](CCC(=O)O)C(=O)N[C@@H](CCCNC(=N)N)C(=O)N[C@@H](Cc2ccccc2)C(=O)N1)C(C)(C)C)C1CCCCC1)C(=O)O [Compound R3201, [mXylyl(1,6)]Ac-C-V-E-R-F-C-D-Tbg-Y-azaTrp-E-Y-P-Chg-Nvl] | – | – | – | – | – | – | – | – | – | inhibitory activity in ex vivo hemolysis assays (in words) [7]: very little inhibitory activity; binding to rat C5 (in words) ([7]; in vivo): do not bind
